Assay results published in patent US8202910B2 (Sequella, Inc., priority 2006, dated 2012).
Values after ≈ are worked out from the molar mass of the structure shown. Where two headings read alike, the source gives them in different places.

Tests used:
M. tuberculosis H37Rv [1] = test: MIC by BACTEC 460; type: cell-based, Mycobacterium tuberculosis; details: Mycobacterium tuberculosis, H37RV; read-out: MIC (BACTEC)
wild type of M.tb = test: MIC, secondary screening, wild type; type: cell-based, Mycobacterium tuberculosis; details: Mycobacterium tuberculosis, WT
M. tuberculosis H37Rv [2] = test: In vivo efficacy, mice infected i.v. with M. tuberculosis, CFU in spleen and lungs; design: species or system C57BL/6 mice
in vitro = in vitro ADME; details: plasma
M. tuberculosis = test: Minimum Bactericidal Concentration (MBC); type: cell-based; details: Mycobacterium tuberculosis
dopamine receptor D1 = molecular target: T1, dopamine receptor D1 (Homo sapiens, UniProt P21728); test: CEREP receptor binding, D1; details: tested at 10 μM; read-out: inhibition of control specific binding
T1 construct: CEREP (contract testing)
Text: (§1) In vitro testing for safety pharmacology and early ADMET (Absorption, Distribution, Metabolism, Excretion, Toxicity) studies of compound 109 were contracted out to CEREP (15318 NE 95th Street, Redmond, Wash., 98052, USA www.cerep.com) under a service agreement and included evaluation of inhibitory binding to a panel of 27 standard receptors and three transporters (See FIG. 60 (Table 31) and FIG. 61 (Table 32)) which included: adenosine receptors (A1 and A2A), adrenergic receptors (alpha 1, alpha 2, beta 1), angiotensin II receptor (AT1), benzodiazapene receptor (BZD), bradykinin receptor (B2), cholecystokinin receptor (CCK1), dopamine receptors (D1, D2S), endothelin receptor (ETA), GABA receptor (GABA), glutamate receptor (NMDA), histamine receptor (H1 central), melanocortin receptor (MC4), muscarinic receptor (M, non-selective), neurokinin receptor (NK1), neuropeptide Y receptor (Y), nicotinic receptor (neuronal, alpha-BGTX-insensitive), opiate receptor (non-selective opiate), orphanin receptor (ORL1), phencyclidine receptor (PCP), serotonin receptor (5-HT), sigma receptor (sigma non-selective), steroid receptor (glucocorticoid receptor, GR), and NE, DA, and 5-HT transporters.
(§2) The specific ligand binding to the receptors is defined as the difference between the total binding and the nonspecific binding determined in the presence of an excess of unlabelled ligand.

dopamine receptor D2S = molecular target: T2, dopamine receptor D2S (Homo sapiens, UniProt P14416); test: CEREP receptor binding, D2S; details: tested at 10 μM; read-out: inhibition of control specific binding
T2 construct: CEREP (contract testing)
Text: as §1, §2

[3] = test system: muscarinic receptor (M, non-selective); test: CEREP receptor binding, muscarinic M; details: tested at 10 μM
Text: as §1, §2

[4] = molecular target: T3, Norepinephrine NE transporter (Homo sapiens, UniProt P23975); test: CEREP transporter binding, NE; details: tested at 10 μM; read-out: inhibition of control specific binding
T3 construct: CEREP (contract testing)
Text: as §1, §2

Dopamine DA transporter = molecular target: T4, Dopamine DA transporter (Homo sapiens, UniProt Q01959); test: CEREP transporter binding, DA; details: tested at 10 μM; read-out: inhibition of control specific binding
T4 construct: CEREP (contract testing)
Text: as §1, §2

Candida albicans = test: Spectrum of activity MIC, broth microdilution NCCLS M27-A2 (yeast); type: cell-based
Description: Compound 109 was tested against a representative panel of commonly encountered clinical microorganisms comprising opportunistic pathogens, target pathogens and normal human flora. The spectrum of activity of compound 109 was evaluated by performing recommended broth microdilution methods. NCCLS M27-A2, 2003 for yeast and NCCLS M38-A, 2003 for mold.

M. bovis BCG = test: microbe, parasite or virus in culture; type: cell-based; details: Mycobacterium tuberculosis variant bovis BCG
M. marinum = test: Spectrum of activity MIC, MOTT, agar proportion method; type: cell-based; details: Mycobacterium marinum; three strains
M. avium complex (MAC) = test: as above; type: cell-based; details: Mycobacterium avium; three isolates
M. fortuitum = test: Spectrum of activity MIC, rapid-grower, broth microdilution (NCCLS M24-A); type: cell-based; details: Mycolicibacterium fortuitum; all strains tested
[5] = test system: RIF^R M. tuberculosis isolate 3185; test: microbe, parasite or virus in culture; type: cell-based
[6] = test system: RIF^R M. tuberculosis strain 3185; type: cell-based
[7] = test system: RIF^R M. tuberculosis strain 2482; type: cell-based
[8] = test system: M. tuberculosis H37Rv (Pasteur); test: Rapid in vivo model of TB, body weight of infected mice; design: species or system C3H female mice
M. tuberculosis H37Rv [9] = test: Standard chronic mouse model of tuberculosis, CFU in lung; type: in vivo, C57BL/6 female mice
human CYP2C19 = human CYP2C19 (Homo sapiens, UniProt P33261); test: Metabolism by CYP2C19; type: in vitro ADME
Text: Two of the groups contained oxidized metabolites. […] Based on the finding that SQ109 was metabolized rapidly by CYP, it is possible that its antimycobacterial activity may come from one of its metabolites. It is conceivable that SQ109 is a prodrug and requires activation by mycobacterial CYP. We speculate that when SQ109 is used in combination with rifampicin, the latter induces certain CYP activity within the Mycobacteria. Elevated CYP activity activates the SQ109 prodrug more efficiently, resulting in an apparent synergistic activity of the two drugs.

M. avium = test: Spectrum (unpublished data); type: cell-based

T1 sequence (P21728 whole entry): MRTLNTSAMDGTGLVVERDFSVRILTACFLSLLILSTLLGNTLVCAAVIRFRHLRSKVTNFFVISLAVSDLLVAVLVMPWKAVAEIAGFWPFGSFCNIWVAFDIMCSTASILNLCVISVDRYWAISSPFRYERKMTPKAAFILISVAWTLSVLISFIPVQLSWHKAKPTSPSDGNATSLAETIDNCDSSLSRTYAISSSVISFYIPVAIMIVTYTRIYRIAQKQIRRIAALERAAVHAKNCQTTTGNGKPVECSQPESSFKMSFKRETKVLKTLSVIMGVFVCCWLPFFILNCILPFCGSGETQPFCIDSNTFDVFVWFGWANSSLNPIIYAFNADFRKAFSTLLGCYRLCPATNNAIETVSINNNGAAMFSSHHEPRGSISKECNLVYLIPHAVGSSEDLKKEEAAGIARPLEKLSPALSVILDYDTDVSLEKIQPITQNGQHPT
T3 sequence (P23975 whole entry): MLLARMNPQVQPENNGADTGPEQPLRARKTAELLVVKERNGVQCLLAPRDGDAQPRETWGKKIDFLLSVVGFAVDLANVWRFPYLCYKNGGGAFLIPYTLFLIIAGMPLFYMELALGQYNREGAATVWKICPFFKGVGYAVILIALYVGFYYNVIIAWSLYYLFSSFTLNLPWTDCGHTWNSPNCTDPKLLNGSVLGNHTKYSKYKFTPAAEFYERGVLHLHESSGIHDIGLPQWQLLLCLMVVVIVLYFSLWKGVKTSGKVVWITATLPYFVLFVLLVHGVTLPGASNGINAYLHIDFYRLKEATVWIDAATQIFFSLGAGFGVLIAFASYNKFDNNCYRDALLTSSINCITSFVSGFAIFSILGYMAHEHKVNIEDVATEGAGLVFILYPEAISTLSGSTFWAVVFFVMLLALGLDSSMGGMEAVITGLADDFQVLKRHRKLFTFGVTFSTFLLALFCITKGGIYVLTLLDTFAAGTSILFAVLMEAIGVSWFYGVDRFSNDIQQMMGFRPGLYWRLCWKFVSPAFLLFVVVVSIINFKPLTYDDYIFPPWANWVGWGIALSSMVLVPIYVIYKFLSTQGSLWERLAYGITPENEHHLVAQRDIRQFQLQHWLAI
Chain of human CYP2C19 (P33261 whole entry): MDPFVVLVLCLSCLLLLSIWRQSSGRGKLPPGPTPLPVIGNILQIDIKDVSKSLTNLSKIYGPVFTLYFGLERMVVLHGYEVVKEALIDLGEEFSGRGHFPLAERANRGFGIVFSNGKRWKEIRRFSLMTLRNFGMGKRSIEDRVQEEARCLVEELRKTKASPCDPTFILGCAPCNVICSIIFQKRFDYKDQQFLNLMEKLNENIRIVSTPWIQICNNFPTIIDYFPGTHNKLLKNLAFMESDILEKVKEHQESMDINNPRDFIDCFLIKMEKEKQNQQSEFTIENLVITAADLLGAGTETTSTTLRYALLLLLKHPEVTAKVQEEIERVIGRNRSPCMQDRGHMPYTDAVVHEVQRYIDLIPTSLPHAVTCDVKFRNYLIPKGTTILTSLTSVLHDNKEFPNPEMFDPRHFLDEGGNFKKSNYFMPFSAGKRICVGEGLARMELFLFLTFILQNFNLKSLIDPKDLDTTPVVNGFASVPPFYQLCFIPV
T4 sequence (Q01959 whole entry): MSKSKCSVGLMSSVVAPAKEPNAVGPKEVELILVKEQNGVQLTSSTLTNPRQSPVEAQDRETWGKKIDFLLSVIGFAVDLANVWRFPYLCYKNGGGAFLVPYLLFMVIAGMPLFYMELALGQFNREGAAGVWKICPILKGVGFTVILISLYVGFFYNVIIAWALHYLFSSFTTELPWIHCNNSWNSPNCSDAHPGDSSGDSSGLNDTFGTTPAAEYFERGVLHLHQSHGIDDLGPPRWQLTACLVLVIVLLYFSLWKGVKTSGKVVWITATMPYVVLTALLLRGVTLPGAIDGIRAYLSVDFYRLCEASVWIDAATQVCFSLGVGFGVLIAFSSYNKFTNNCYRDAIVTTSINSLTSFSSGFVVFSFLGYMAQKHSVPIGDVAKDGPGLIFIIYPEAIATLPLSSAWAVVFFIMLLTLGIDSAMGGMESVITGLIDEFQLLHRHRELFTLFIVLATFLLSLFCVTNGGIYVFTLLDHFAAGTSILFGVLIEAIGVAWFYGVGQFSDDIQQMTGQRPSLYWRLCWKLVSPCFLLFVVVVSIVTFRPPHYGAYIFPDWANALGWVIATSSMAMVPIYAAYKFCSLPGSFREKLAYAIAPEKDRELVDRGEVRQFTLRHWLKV
T2 sequence (P14416 1-414 isoform P14416-2): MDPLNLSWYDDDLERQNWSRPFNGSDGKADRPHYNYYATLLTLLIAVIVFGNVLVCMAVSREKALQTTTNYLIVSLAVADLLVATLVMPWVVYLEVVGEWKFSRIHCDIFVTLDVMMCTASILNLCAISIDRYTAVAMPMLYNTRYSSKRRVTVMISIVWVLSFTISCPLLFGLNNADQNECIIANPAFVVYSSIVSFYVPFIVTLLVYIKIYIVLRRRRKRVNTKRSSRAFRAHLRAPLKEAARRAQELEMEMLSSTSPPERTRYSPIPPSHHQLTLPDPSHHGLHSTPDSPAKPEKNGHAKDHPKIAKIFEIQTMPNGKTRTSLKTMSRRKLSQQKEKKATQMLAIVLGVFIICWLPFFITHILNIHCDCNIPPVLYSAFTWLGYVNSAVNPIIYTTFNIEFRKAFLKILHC

With `CC(C)=CCC/C(C)=C/CNCCNC1C2CC3CC(C2)CC1C3` (stereo not drawn) [Compound 109, N-Geranyl-N′-(2-adamanthyl)ethane-1,2-diamine] the MIC (M. tuberculosis H37Rv [1]) was 0.32 µg/mL (≈ 0.968 µM), the MIC (wild type of M.tb; value in brackets, read-out: MIC (or uM)) was 0.18 µM and the MIC (wild type of M.tb; EMB, RL241, Cmpd#59 as 2HCl salt, Cmpd#109 as 2CF3COOH salt, read-out: MIC) was 0.1 µg/mL. For the same compound, the “difference with untreated control, spleen and lung” value (M. tuberculosis H37Rv [2]; 0.1 mg/kg after 4 weeks of therapy, 5×10^6 CFU) was “minimal but sufficient difference with untreated control”, the “activity in the spleen compared with EMB” value (M. tuberculosis H37Rv [2]; 1 mg/kg and 10 mg/kg, 5×10^5 CFU, chemotherapy from day 20) was “equal to that of EMB at 100 mg/kg” and the “activity in the lung compared with EMB” value (M. tuberculosis H37Rv [2]; 10 mg/kg after 4 and 6 weeks, 5×10^5 CFU) was “more effective than EMB at 100 mg/kg”. For the same compound, the “activity in spleen and lung compared with EMB” value (M. tuberculosis H37Rv [2]; 10 mg/kg and 25 mg/kg, shorter model, 5×10^6 CFU, 4 weeks) was “equal to that of EMB at 100 mg/kg”, the “activity (CFUs in spleen and lungs) compared with ethambutol” value (M. tuberculosis H37Rv [2]; doses 1 and 10 mg/kg, orally by gavage) was “equal to that of ethambutol at 100 mg/kg” and the fraction unbound at 20 ng/ml (in vitro) was 0.85. For the same compound, the fraction unbound at 200 ng/ml (in vitro) was 0.26, the fraction unbound at 2000 ng/ml (in vitro) was 0.52 and the MBC (M. tuberculosis) was 0.313 µg/mL (≈ 0.947 µM). The inhibition at 10 µM (dopamine receptor D1) was 51%, the inhibition at 10 µM (dopamine receptor D2S) was 73% and the “inhibition of control specific binding” value [3] was 96%. For the same compound, the inhibition at 10 µM [4] was 87%, the inhibition at 10 µM (Dopamine DA transporter) was 63% and the MIC (Candida albicans) was 4 to 8 µg/mL (≈ 12.1 to 24.2 µM). The MIC (M. bovis BCG) was 0.5 µg/mL (≈ 1.51 µM), the MIC (M. marinum) was 8 µg/mL (≈ 24.2 µM) and the MIC (M. avium complex (MAC)) was 8 to 32 µg/mL (≈ 24.2 to 96.8 µM). The MIC (M. fortuitum) was 1 µg/mL (≈ 3.03 µM), the MIC ([5]; Mycobacterium tuberculosis, read-out: MIC (BACTEC)) was 0.32 µg/mL (≈ 0.968 µM) and the “MIC (BACTEC)” value ([5]; isolate 3185) was 0.32 µg/mL (≈ 0.968 µM). For the same compound, the growth inhibition [6] was “greater than 99%”, the x/y quotient ([6]; 0.5 MIC SQ109 + rifampicin 4 mg/L) was 0.64 and the x/y quotient ([6]; 0.5 MIC SQ109 + rifampicin 8 mg/L) was 0.48. The x/y quotient ([6]; 0.5 MIC SQ109 + rifampicin 12 mg/L) was 0.40, the x/y quotient ([6]; 0.5 MIC SQ109 + rifampicin 16 mg/L) was 0.35 and the x/y quotient ([7]; 0.25 MIC SQ109 (0.08 mg/L) + 10 mg/L rifampicin) was 0.66. The x/y quotient ([7]; 0.5 MIC SQ109 + rifampicin 25 mg/L) was 0.497, the x/y quotient ([7]; 0.5 MIC SQ109 + rifampicin 50 mg/L) was 0.39 and the x/y quotient ([7]; 0.5 MIC SQ109 + rifampicin 100 mg/L) was 0.33. For the same compound, the growth inhibition ([7]; 0.5 MIC SQ109 added to 100 mg/L rifampicin) was “more than 99%”, the average body weight ([8]; SQ109 10 mg/kg + RIF 2 mg/kg orally, 6 mice, by the 3 wk, uninfected control 24.5 g, untreated 17 g) was 24.3 grams and the “body weight of infected mice” value ([8]; SQ109 in combination with PZA (50 mg/kg)) was “slight improvement”. The “body weight of infected mice” value ([8]; compound 109 (10 mg/kg) in combination with Rifampicin (2 mg/kg)) was “comparable to non-infected controls”, the “body weight of infected mice” value ([8]; compound 109 (10 mg/kg) in combination with Rifampicin (2 mg/kg), listed as SQ109) was “fully prevented body weight loss” and the “body weight of infected mice” value ([8]; compound 109 in combination with EMB (10 mg/kg)) was “closer to placebo treated controls”. The “body weight of infected mice” value ([8]; compound 109 in combination with EMB (10 mg/kg), listed as SQ109) was “No effect”, the “body weight of infected mice” value ([8]; compound 109 in combination with INH (1 mg/kg)) was “comparable to non-infected controls” and the “body weight of infected mice” value ([8]; compound 109 in combination with INH (1 mg/kg), listed as SQ109) was “enhanced activity”. For the same compound, the “body weight of infected mice” value ([8]; compound 109 in combination with Moxi (10 mg/kg)) was “closer to placebo treated controls”, the “body weight of infected mice” value ([8]; compound 109 in combination with Moxi (10 mg/kg), listed as SQ109) was “antagonistic effect” and the average weight ([8]; single drug alone (SQ109 10 mg/kg; RIF 2 mg/kg), by the 3 wk) was 21.3 g. The “body weight of infected mice” value ([8]; single drug alone (SQ109 10 mg/kg; Rifampin 2 mg/kg)) was “closer to placebo treated controls”, the CFU in lung (M. tuberculosis H37Rv [9]; INH+RIF+SQ109 at 25, 20 and 10 mg/kg, wk 4) was 3.2 log10CFU and the CFU in lung (M. tuberculosis H37Rv [9]; SQ109 by itself, 4 week therapy, control untreated 8.1) was 6.6 log10CFU. For the same compound, the CFU in lung (M. tuberculosis H37Rv [9]; combination SQ109+RIF at 10 and 20 mg/kg, 4 week therapy) was 4.8 log10, the “metabolism by CYP” value (human CYP2C19) was “metabolized” and the activity (M. avium) was “much less active”.
